pIC50: −log10 of the molar value.
Each compound was assayed on Entamoeba histolytica (assay: Antiamoebic activity against Entamoeba histolytica HM-1:IMSS after 72 hrs).
Assay type: functional, organism-based

Row | Compound | pIC50
1 | S=C(NCc1ccccc1Cl)N1N=C(c2ccccc2)CC1c1ccccc1 (stereo not drawn) | 4.96
2 | S=C(N1CCN(c2ccccc2)CC1)N1N=C(c2ccccc2)CC1c1ccccc1 (stereo not drawn) | 5.74
3 | S=C(N1CCC(Cc2ccccc2)CC1)N1N=C(c2ccccc2)CC1c1ccccc1 (stereo not drawn) | 5.80
4 | CN(Cc1ccccc1)C(=S)N1N=C(c2ccccc2)CC1c1ccccc1 (stereo not drawn) | 5.55
5 | S=C(N1CCCc2ccccc21)N1N=C(c2ccccc2)CC1c1ccccc1 (stereo not drawn) | 6.35

The next lines start with the values.

Row | pIC50 | Compound
6 | 5.32 | Cc1ccccc1NC(=S)N1N=C(c2ccccc2)CC1c1ccccc1 (stereo not drawn)
7 | 4.97 | Cc1cccc(NC(=S)N2N=C(c3ccccc3)CC2c2ccccc2)c1 (stereo not drawn)
8 | 6.42 | Cc1ccc(NC(=S)N2N=C(c3ccccc3)CC2c2ccccc2)cc1 (stereo not drawn)
